# Experimental data as given in paper PMC9125540 (Virology Journal, 2022).
# Counter-ions that a name gives are not always drawn. Like-named read-outs stand apart in the source and are kept apart here.
# Columns and labels:
# [1] = system: IAV M gene; type: cell-based, influenza A virus
# [2] = system: TNF-α; assay: ELISA cytokine protein quantification, TNF-α; type: cell-based, Canine
# Protocol: (§1) MDCK cells were treated as mentioned above. Untreated cells were considered as the negative control. Cell-free supernatant was harvested following 72 h infection period and stored at − 80 °C for the cytokine analysis. In order to investigate the effect of viral infection and anionic compounds on the production of inflammatory cytokines such as IL-6, CCL2 and TNF-α as well as anti-inflammatory cytokine proteins IFN-β1 and IL-27, ELISA method was utilized. Quantitative sandwich Picokine ELISA kits (Boster Biological Technology, CA, USA) were used to detect IL-6, TNF-α and IL-27 cytokine proteins according to the manufacturer's instructions. The CCL2 and IFN-β were evaluated by sandwich Ready-SET-Go kit (Invitrogen, USA) and sandwich geneILNB1 kit (EIAab Science Co, China) according to the manufacturers’ instructions, respectively. The concentrations of the cytokines were calculated according to the corresponding reaction standard formula.
# (§2) The cytokine protein levels in supernatants of MDCK cell culture at 72 h after exposure were calculated according to the reaction standard formula.
# (§3) To calculate the concentration of the cytokines in cell free supernatants, firstly, the standards optical densities were measured and the standard curves were plotted. The equations of standard curves were used to estimate protein concentration in the samples.
# [3] = system: IL-6; assay: ELISA cytokine protein quantification, IL-6; type: cell-based, Canine
# Protocol: as §1, §2, §3
# [4] = system: CCL2; assay: ELISA cytokine protein quantification, CCL2; type: cell-based, Canine
# Protocol: as §1, §2, §3
# [5] = system: IL-27; assay: ELISA cytokine protein quantification, IL-27; type: cell-based, Canine
# Protocol: as §1, §2, §3
# [6] = system: IFN- β; assay: ELISA cytokine protein quantification, IFN-β; type: cell-based, Canine
# Protocol: as §1, §2, §3
# [7] = system: MDCK cells; assay: MTT cytotoxicity assay of the compounds (CC50, NCTC, selectivity index); conditions: MDCK cells, MTT, 48 h
# Protocol: (§4) The cytotoxic effects of the anionic compounds on the viability of MDCK cells was measured by MTT [3-(4, 5-dimethylthiazol-2ol) 2, 5 diphenyl tetrazolium bromide] assay. Briefly, the confluent 96-well plate of MDCK cells were exposed to twofold serial dilutions of the compounds (in triplicates), 100 μl/well, and incubated for 48 h. After the incubation period, the supernatants were removed and 100 μl of 1X MTT solution (100 μl/well) was added to each well. The plates were incubated for 4 h at 37 °C. Then, 100 μl of DMSO (Samchun, Korea) was added to dissolve formazan crystals. Color adsorption in the solution was measured using an enzyme-linked immunosorbent assay (ELISA) reader (StataFax 2100, USA) at 570 nm to calculate the 50% cytotoxic concentration (CC50). The cells without treatment were used as negative control. The percentage of toxicity was calculated using the following formula:
# (§5) Toxicity (%) = [100 − (ODT/ODC) × 100], where ODT and ODC refer to the absorbance of the test substance and control, respectively [34]. The 50% cytotoxic concentration (CC50) was defined as the cytotoxic concentration of compounds by regression analysis.
# (§6) The non-cytotoxic concentration (NCTC) of the compounds was also determined using the same procedure and used for the antiviral assays. […] The cells with no treatment were considered as negative control.
# (§7) The selectivity index (SI) is relative safety of a compound and it was obtained by dividing CC50 by NCTC in the same units.
# [8] = system: TNF-α; type: cell-based, Canine; conditions: combination treatment (co-penetration) with H1N1, 72 h; H1N1 alone 191.00 fold
# [9] = system: IL-6; type: cell-based, Canine; conditions: combination treatment (co-penetration) with H1N1, 72 h; H1N1 alone 16.622 fold
# [10] = system: CCL2; type: cell-based, Canine; conditions: combination treatment (co-penetration) with H1N1, 72 h; H1N1 alone 22.123 fold
# [11] = system: IL-27; type: cell-based, Canine; conditions: combination treatment (co-penetration) with H1N1, 72 h; H1N1 alone 0.004 fold
# [12] = system: IFN-β1; type: cell-based, Canine; conditions: combination treatment (co-penetration) with H1N1, 72 h; H1N1 alone 0.038 fold
# [13] = MTT cytotoxicity assay of the compounds (CC50, NCTC, selectivity index); conditions: dog
# Protocol: as §4, §5, §6, §7
# [14] = co-penetration with H1N1, MDCK supernatant, 72 h, H1N1 alone 523.00 ± 2.41
# [15] = co-penetration with H1N1, MDCK supernatant, 72 h, H1N1 alone 1243.79 ± 5.58
# [16] = co-penetration with H1N1, MDCK supernatant, 72 h, H1N1 alone 941.67 ± 4.71
# [17] = co-penetration with H1N1, MDCK supernatant, 72 h, H1N1 alone 26.25 ± 1.77
smiles,measurement,setting,value
"O=C(O)CC(O)(CC(=O)O)C(=O)O [Citrate, sodium citrate]","Ct value, IAV M gene",[1],22.45 ± 0.75
same,TNF-α cytokine protein concentration (mean ± SD),[2]; [14],253.45 ± 0.48 pg/mL
same,IL-6 cytokine protein concentration (mean ± SD),"[3]; co-penetration with H1N1, MDCK supernatant, 72 h, H1N1 alone 171.78 ± 0.17, listed as Cit",126.60 ± 0.17 pg/mL
same,CCL2 cytokine protein concentration (mean ± SD),[4]; [15],446.95 ± 0.37 pg/mL
same,IL-27 cytokine protein concentration (mean ± SD),[5]; [16],2055.00 ± 0.00 pg/mL
same,IL-27 cytokine protein concentration (mean ± SD),"[5]; co-penetration with H1N1, MDCK supernatant, 72 h, H1N1 alone 941.67 ± 4.71, listed as Cit",2055.00 ± 0.00 pg/mL
same,IFN- β cytokine protein concentration (mean ± SD),[6]; [17],70.62 ± 2.06 pg/mL
same,NCTC (non-cytotoxic concentration),[7],3.00 ± 0.00 mg/mL
same,NCTC (non-cytotoxic concentration),[7]; listed as citrate,3 mg/mL
"O=C1O[C@H]([C@@H](O)CO)C(O)=C1O [Ascorbate, ascorbic acid]","Ct value, IAV M gene","[1]; combination treatment with H1N1, supernatants of 48 h treatments, H1N1 alone 12.76 ± 0.24",No Ct value was detected
same,TNF-α cytokine protein concentration (mean ± SD),[2]; [14],284.25 ± 0.32 pg/mL
same,IL-6 cytokine protein concentration (mean ± SD),"[3]; co-penetration with H1N1, MDCK supernatant, 72 h, H1N1 alone 171.78 ± 0.17",38.05 ± 0.17 pg/mL
same,CCL2 cytokine protein concentration (mean ± SD),[4]; [15],309.05 ± 1.86 pg/mL
same,CCL2 cytokine protein concentration (mean ± SD),"[4]; co-penetration with H1N1, MDCK supernatant, 72 h, H1N1 alone 1243.79 ± 5.58, listed as Asc",309.05 ± 1.86 pg/mL
same,IL-27 cytokine protein concentration (mean ± SD),[5]; [16],1833.33 ± 2.36 pg/mL
same,IFN- β cytokine protein concentration (mean ± SD),[6]; [17],73.75 ± 1.77 pg/mL
same,IFN- β cytokine protein concentration (mean ± SD),"[6]; co-penetration with H1N1, MDCK supernatant, 72 h, H1N1 alone 26.25 ± 1.77, listed as Asc",73.75 ± 1.77 pg/mL
"CC(=O)[O-].[Na+] [Acetate, sodium acetate]","Ct value, IAV M gene",[1],20.70 ± 0.30
same,TNF-α relative expression,[8],4.83 fold
same,IL-6 relative expression,[9],0.020 fold
same,CCL2 relative expression,[10],0.094 fold
same,IL-27 relative expression,[11],0.099 fold
same,IFN- β1 relative expression,[12],0.049 fold
same,TNF-α cytokine protein concentration (mean ± SD),[2],222.20 ± 0.64 pg/mL
same,percentage of change of TNF-α protein relative to H1N1 (mean ± SD),"[2]; co-penetration, 72 h",-57.51 ± 0.32
same,IL-6 cytokine protein concentration (mean ± SD),[3],110.64 ± 0.08 pg/mL
same,CCL2 cytokine protein concentration (mean ± SD),[4],338.26 ± 0.00 pg/mL
same,percentage of change of CCL2 protein relative to H1N1 (mean ± SD),"[4]; co-penetration, 72 h",-72.80 ± 0.12
same,IL-27 cytokine protein concentration (mean ± SD),[5],1938.33 ± 0.00 pg/mL
same,percentage of change of IL-27 protein relative to H1N1 (mean ± SD),"[5]; co-penetration, 72 h",105.84 ± 1.03
same,IFN- β cytokine protein concentration (mean ± SD),[6],68.96 ± 2.06 pg/mL
same,percentage of change of IFN- β protein relative to H1N1 (mean ± SD),"[6]; co-penetration, 72 h",163.03 ± 9.86
same,CC50,[7],28.95 ± 4.32 mg/mL
same,NCTC (non-cytotoxic concentration),[7],3.00 ± 0.00 mg/mL
same,NCTC (non-cytotoxic concentration),[7]; listed as acetate,3 mg/mL
"NC12CC3CC(CC(C3)C1)C2 [Amantadine hydrochloride, reference compound]",CC50 at 48 h,[13],200 ± 1530 µg/mL
same,NCTC (non-cytotoxic concentration),[7],0.10 ± 0.00 mg/mL
